Laboratory results: patent publication US7696197B2, “Use of a phenothiazine derivative for preventing and/or treating hearing loss” (Societe de Conseils de Recherches et d'Applications …, priority 2004, dated 2010)

Tested on: neuromast acoustic hair cells
Assay: Ototoxicity induced by gentamicin in zebrafish, DASPEI staining of neuromast acoustic hair cells
Type: in vivo
Details: 24 hours, fish aged 5 days
Description: Zebrafish display the sensory organs on the surface of their bodies, called neuromasts. In these fish, the neuromast acoustic hair cells can be stained with DASPEI and this staining reflects the number of acoustic hair cells. These acoustic hair cells are structurally and functionally similar to the internal acoustic hair cells of the human ear.
Damage to the internal acoustic hair cells is induced in zebrafish by gentamicin. In order to test the effect of compound (1) on the protection of the acoustic hair cells damaged by gentamicin, the compound (1) was administered as a co-treatment with gentamicin. The internal acoustic hair cells are then stained and quantified.
The study is undertaken on fish aged 5 days incubated with 1 μg/ml of gentamicin for 24 hours in the presence or in the absence of compound (1). Controls are carried out in parallel; single vehicle (1% DMSO; positive control). The fish treated with gentamicin are the negative controls.
DASPEI (2,4-dimethyl-aminostyryl-N-ethyl pyridinium iodide) staining is carried out in order to visualize the acoustic hair cells in vivo (n=5 per group). Morphometric analysis is used in order to quantify the staining signal of the acoustic hair cells. The signal for DASPEI staining of the positive controls was defined as 100%. […]

gentamicin
DASPEI staining signal of acoustic hair cells, % of the control signal (gentamicin 1 μg/ml alone (negative control)): 31.5±4.2% | loss of the acoustic hair cells following treatment with gentamicin (gentamicin 1 μg/ml alone): 68.5±4.9%
